Experimental data as given in publication PMC3728351, “Allosteric Inhibitors of the NS3 Protease from the Hepatitis C Virus” (PLoS ONE, 2013).
Read-outs that look alike come from different tables or passages of the source.

Key:
NS3 protease S139A/R155K = target: T1, NS3 protease S139A/R155K (Hepatitis C virus genotype 1b, UniProt P26663, R1181K/S1165A); assay: ITC binding to Zn^+2-free NS3 protease, S139A/R155K; conditions: 25°C, 100 mM sodium acetate, 2 mM EDTA, pH 5; relative error 15%
T1 construct: The N-terminal domain from full-length NS3 protein corresponding to NS3 protease was expressed and purified; made in house
Description: (§1) The N-terminal domain from full-length NS3 protein corresponding to NS3 protease was expressed and purified as described elsewhere, [18].
(§2) Ligand binding to NS3 protease was determined with a high-sensitivity isothermal titration VP-ITC microcalorimeter (MicroCal, USA). Protein samples and reference solutions were properly degassed and carefully loaded into the cells to avoid bubble formation during stirring. Experiments were performed with freshly prepared buffer-exchanged protein solutions, at 25°C in 100 mM sodium acetate, 2 mM EDTA, pH 5. NS3 protease 20 µM solution in the calorimetric cell was titrated with compound 300 µM solution. Control experiments were performed under the same experimental conditions, except for the presence of zinc (no addition of EDTA). The heat evolved after each ligand injection was obtained from the integral of the calorimetric signal. The heat due to the binding reaction was obtained as the difference between the reaction heat and the corresponding heat of dilution, the latter estimated as a constant heat throughout the experiment, and included as an adjustable parameter in the analysis. The association constant (Ka) and the enthalpy change (ΔH) were obtained through non-linear regression of experimental data to a model for a protein with a single ligand binding site. Data were analyzed using software developed in our laboratory implemented in Origin 7 (OriginLab, USA).
(§3) NS3 protease wild-type, pseudo-wild-type (containing the inactivating mutation S139A) and several variants containing drug-resistance associated mutations (R155K, R155Q, A156T, and D168A) were employed for determining the impact of these mutations on the interaction of the selected compounds with the protein (change in dissociation constant).

[1] = tested on: genotype 1b Con1 HCV subgenomic replicons (Huh 5-2); assay: microbe, parasite or virus in culture; conditions: for EC50: Hepatitis C virus, GETYPE1B, Huh-5-2, 72 h, read-out: EC50, effective concentration 50%
Description: The highly permissive cell clone Huh 7-Lunet, as well as Huh 7 cells containing subgenomic HCV replicons I389luc-ubi-neo/NS3-3′/5.1 (Huh 5-2), I377NS3-3′/wt (Huh 9-13) or I389/hygro-ubi-NS3-3/5.1 (a kind gift from Dr. V. Lohmann and Dr. R. Bartenschlager) have been described recently [25]-[28]. Cells were grown in Dulbecco’s modified Eagle’s medium (DMEM; Gibco, Belgium) supplemented with 10% heat-inactivated fetal bovine serum (PAN-Biotech GmbH, Germany), 1X non-essential amino acids (Gibco), 100 IU/mL penicillin (Gibco), 100 µg/mL streptomycin (Gibco), and 250 µg/mL geneticin (G418; Gibco).
Antiviral assays for assessing the efficacy of the selected compounds were performed as described in literature [23]–[28]. Briefly, Huh 5-2 cells were seeded at a density of 5⋅10^3 cells per well in a tissue culture-treated white 96-well view plate (Techno Plastic Products AG, Switzerland) in complete DMEM supplemented with 250 µg/mL G418. […] After 3 days of incubation at 37°C cell culture medium was removed and luciferase activity was determined using the Bright-Glo™ Luciferase Assay System (Promega Corporation, The Netherlands). The luciferase signal was measured using a Synergy HT Multimode Reader (BioTek Instruments Inc, USA).

NS3 protease S139A/R155Q = target: T2, NS3 protease S139A/R155Q (Hepatitis C virus genotype 1b, UniProt P26663, R1181Q/S1165A); assay: ITC binding to Zn^+2-free NS3 protease, S139A/R155Q; conditions: 25°C, 100 mM sodium acetate, 2 mM EDTA, pH 5; relative error 15%
T2 construct: The N-terminal domain from full-length NS3 protein corresponding to NS3 protease was expressed and purified; made in house
Description: as §1, §2, §3

in vitro = format: cell-based; conditions: human
Description: Serial dilutions of the test compounds in complete DMEM (without G418) were added 24 hours after seeding. Cells were allowed to proliferate for 3 days at 37°C, after which the cell number was determined by CellTiter 96 AQueous One Solution Cell Proliferation Assay (Promega Corporation).

[2] = target: T3, NS3 protease S139A (pseudo-wild-type) (Hepatitis C virus genotype 1b, UniProt P26663, S1165A); assay: ITC binding to Zn^+2-free NS3 protease, pseudo-wild-type S139A; conditions: 25°C, 100 mM sodium acetate, 2 mM EDTA, pH 5; relative error 15%
T3 construct: The N-terminal domain from full-length NS3 protein corresponding to NS3 protease was expressed and purified; made in house
Description: as §1, §2, §3

[3] = target: T4, NS3 protease wild-type (Zn^+2-free) (Hepatitis C virus genotype 1b, UniProt P26663); assay: biochemical; format: binding
T4 construct: The N-terminal domain from full-length NS3 protein corresponding to NS3 protease was expressed and purified; made in house
Description: as §1, §2, §3

NS3 protease S139A/A156T = target: T5, NS3 protease S139A/A156T (Hepatitis C virus genotype 1b, UniProt P26663, A1182T/S1165A); assay: ITC binding to Zn^+2-free NS3 protease, S139A/A156T; conditions: 25°C, 100 mM sodium acetate, 2 mM EDTA, pH 5; relative error 15%
T5 construct: The N-terminal domain from full-length NS3 protein corresponding to NS3 protease was expressed and purified; made in house
Description: as §1, §2, §3

NS3 protease S139A/D168A = target: T6, NS3 protease S139A/D168A (Hepatitis C virus genotype 1b, UniProt P26663, D1194A/S1165A); assay: ITC binding to Zn^+2-free NS3 protease, S139A/D168A; conditions: 25°C, 100 mM sodium acetate, 2 mM EDTA, pH 5; relative error 15%
T6 construct: The N-terminal domain from full-length NS3 protein corresponding to NS3 protease was expressed and purified; made in house
Description: as §1, §2, §3

NS3 protease [4] = conditions: read-out: dissociation constant for the NS3-zinc interaction; ITC, pH 5; cited from earlier work
NS3 protease [5] = conditions: pH 7.5; cited from earlier work
NS3 protease [6] = conditions: assuming pseudo-first order association, from kobs of ref 23
NS3 protease [7] = conditions: read-out: apparent dissociation constant for the NS3-zinc interaction; cited from earlier work
[8] = ratio of CC50 to EC50 in Huh 5-2 cells
[9] = Huh 5-2 cells, 3 days proliferation, relative error 15%

T5 sequence (P26663 1027-1208 S1165A/A1182T): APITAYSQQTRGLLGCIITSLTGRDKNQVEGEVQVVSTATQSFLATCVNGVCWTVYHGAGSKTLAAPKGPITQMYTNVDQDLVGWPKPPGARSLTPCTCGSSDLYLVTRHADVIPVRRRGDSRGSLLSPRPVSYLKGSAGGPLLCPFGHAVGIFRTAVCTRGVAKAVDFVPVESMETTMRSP
T3 sequence (P26663 1027-1208 S1165A): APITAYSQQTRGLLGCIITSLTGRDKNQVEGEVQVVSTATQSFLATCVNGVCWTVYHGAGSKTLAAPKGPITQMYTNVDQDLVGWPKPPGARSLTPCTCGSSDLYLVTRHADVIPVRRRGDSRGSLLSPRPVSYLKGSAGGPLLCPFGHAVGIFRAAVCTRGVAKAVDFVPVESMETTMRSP
T6 sequence (P26663 1027-1208 S1165A/D1194A): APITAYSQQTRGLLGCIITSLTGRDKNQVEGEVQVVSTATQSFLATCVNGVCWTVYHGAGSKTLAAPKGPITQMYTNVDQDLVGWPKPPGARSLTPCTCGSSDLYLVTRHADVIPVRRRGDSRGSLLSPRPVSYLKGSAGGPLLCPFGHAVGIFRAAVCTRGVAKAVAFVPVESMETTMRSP
T1 sequence (P26663 1027-1208 S1165A/R1181K): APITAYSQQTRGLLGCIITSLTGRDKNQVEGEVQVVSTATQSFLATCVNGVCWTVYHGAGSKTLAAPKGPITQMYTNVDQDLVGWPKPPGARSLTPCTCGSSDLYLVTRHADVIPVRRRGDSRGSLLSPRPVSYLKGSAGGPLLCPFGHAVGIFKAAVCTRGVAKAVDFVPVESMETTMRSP
T4 sequence (P26663 1027-1208): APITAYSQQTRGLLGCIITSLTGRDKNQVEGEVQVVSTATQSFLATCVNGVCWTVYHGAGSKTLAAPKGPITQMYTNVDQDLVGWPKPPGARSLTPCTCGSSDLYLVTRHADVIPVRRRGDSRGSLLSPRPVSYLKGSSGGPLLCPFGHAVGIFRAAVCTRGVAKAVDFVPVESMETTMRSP
T2 sequence (P26663 1027-1208 S1165A/R1181Q): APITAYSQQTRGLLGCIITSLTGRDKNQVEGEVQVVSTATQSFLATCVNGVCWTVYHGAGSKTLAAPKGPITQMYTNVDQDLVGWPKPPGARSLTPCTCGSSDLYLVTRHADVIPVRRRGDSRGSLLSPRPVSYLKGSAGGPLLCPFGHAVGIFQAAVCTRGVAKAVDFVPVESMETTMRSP

Row | Compound | Kd (NS3 protease S139A/R155K) [µM] | EC50 [1] [µM] | CC50/EC50 [1, 8] | Kd (NS3 protease S139A/R155Q) [µM] | CC50 (in vitro; [9]) [µM] | Kd [2] [µM] | Kd [3] [µM] | Kd (NS3 protease S139A/A156T) [µM] | Kd (NS3 protease S139A/D168A) [µM] | Kd (NS3 protease [4]) [µM] | apparent association rate constant, kobs (NS3 protease [5]) | kon (NS3 protease [6]) [M⁻¹ s⁻¹] | Kd (NS3 protease [7]) [µM] | CC50 at 3 days (in vitro; [9]) [µM] | CC50/EC50 [1] | CC50 (in vitro) [µM]
1 | CC(=O)C1CCC2C3C=CC4=CC(=O)CCC4(C)C3CCC12C (centres unmarked) [Compound 7] | 16 | 2 | >60 | 4.2 | > 120 | 5.7 | 16 | 5.8 | 6.5 | – | – | – | – | – | – | –
2 | zinc | – | – | – | – | – | – | – | – | – | 0.5 | around 0.014 s^−1 | < 1400 | ~1 | – | – | –
3 | COC(=O)Nc1nc2ccc(C(=O)c3cccs3)cc2[nH]1 [Compound 1] | 5.3 | 0.03 | >4000 | – | > 120 | 6.5 | 1.9 | – | 2.6 | – | – | – | – | – | – | –
4 | CCOc1ccc(Cc2nccc3cc(OCC)c(OCC)cc23)cc1OCC [Compound 8] | 9.2 | 4 | 15 | 42 | 60 | 34 | 31 | 22 | 16 | – | – | – | – | – | – | –
5 | CC[C@@]1(O)C(=O)OCc2c1cc1n(c2=O)Cc2cc3ccccc3nc2-1 [Compound 3] | – | 0.03 | – | – | – | – | 2.5 | – | – | – | – | – | – | 8 | – | –
6 | Nc1c2c(nc3ccccc13)CCCC2 [Compound 5] | 5.9 | 60 | – | 32 | – | 5.5 | 1.7 | 27 | 8.5 | – | – | – | – | – | >2 | > 120
7 | COC(=O)[C@H]1[C@H]2C[C@@H]3c4[nH]c5cc(OC)ccc5c4CCN3C[C@H]2C[C@@H](OC(=O)/C=C/c2cc(OC)c(OC)c(OC)c2)[C@@H]1OC [Compound 6] | 61 | 20 | >6 | 23 | > 120 | 24 | 40 | 45 | 36 | – | – | – | – | – | – | –
